# Reference: US20100075957A1, “AMINODIHYDROTHIAZINE DERIVATIVES SUBSTITUTED WITH A CYCLIC GROUP” (SHIONOGI & CO., LTD., priority 2007, published 2010)
# Target: T1, Recombinant human BACE-1 (Homo sapiens, UniProt P56817)
# T1 construct: purchased R&D Systems
# Assay: Assay of β-secretase-inhibiting activity;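 further: substrate is a peptide carrying biotin and europium cryptate, after the enzyme reaction, Streptavidin-XL665 is added and incubated 1 h at 30 °C before fluorescence reading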
# Type: biochemical
# Conditions: Recombinant human BACE-1 7.4 nM, substrate peptide 18 nM, pH 5.0, 30° C., 3 hours; Table 140; read-out: IC50
# T1 sequence (P56817 46-501): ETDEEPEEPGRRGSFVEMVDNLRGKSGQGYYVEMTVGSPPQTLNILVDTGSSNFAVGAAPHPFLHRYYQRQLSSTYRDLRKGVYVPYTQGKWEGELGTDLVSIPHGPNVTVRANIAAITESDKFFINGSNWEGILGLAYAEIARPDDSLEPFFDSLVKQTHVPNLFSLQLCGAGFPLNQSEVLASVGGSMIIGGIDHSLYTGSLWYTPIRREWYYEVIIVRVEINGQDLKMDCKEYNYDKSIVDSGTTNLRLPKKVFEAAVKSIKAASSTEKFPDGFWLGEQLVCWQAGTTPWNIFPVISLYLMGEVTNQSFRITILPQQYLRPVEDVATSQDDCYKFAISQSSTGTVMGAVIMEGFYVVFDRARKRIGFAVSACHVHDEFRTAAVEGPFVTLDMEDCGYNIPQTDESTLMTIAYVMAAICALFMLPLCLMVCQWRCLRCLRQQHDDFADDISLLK
row,Compound,IC50 [nM]
1,C[C@@]1(c2cncc(NC(=O)c3cnc(Cl)cn3)c2)CCSC(N)=N1 [Compound 597],70
2,C[C@@]1(c2ccnc(NC(=O)c3ccc(Cl)cn3)c2)CCSC(N)=N1 [Compound 598],30
3,C[C@@]1(c2cccc(NC(=O)c3ccc(Cl)cn3)n2)CCSC(N)=N1 [Compound 599],30
4,CC1(C)C[C@@](C)(c2cc(NC(=O)c3coc(Cl)n3)ccc2F)N=C(N)S1 [Compound 645],200

# Same assay, conditions: Recombinant human BACE-1 7.4 nM, substrate peptide 18 nM, pH 5.0, 30° C., 3 hours; Table 141; read-out: IC50
row,Compound,IC50 [nM]
1,Cc1cn2cc(C(=O)Nc3ccc(F)c([C@]4(C)CCSC(N)=N4)c3)ncc2n1 [Compound 652],60
2,CC1(C)C[C@@](C)(c2cc(NC(=O)c3ncccc3F)ccn2)N=C(N)S1 [Compound 655],10
3,C[C@]1(c2cc(NC(=O)c3ncccc3F)ccc2F)N=C(N)SCC1(F)F [Compound 660],110
4,Cc1cnc(C(=O)Nc2ccc(F)c([C@@]3(C)N=C(N)SCC3(F)F)c2)cn1 [Compound 662],170
5,Cc1nc(C(=O)Nc2ccc(F)c([C@@]3(C)N=C(N)SCC3(F)F)c2)co1 [Compound 664],20
6,CCCCc1ccc(C(=O)Nc2ccc(F)c([C@@]3(C)N=C(N)SCC3(F)F)c2)nc1 [Compound 665],870
7,COc1nc(C(=O)Nc2ccc(F)c([C@]3(C)CCSC(N)=N3)c2)co1 [Compound 667],20
8,C[C@@]1(c2cc(Nc3ncc4ccccn34)ccc2F)CCSC(N)=N1 [Compound 668],510
9,C[C@@]1(c2cc(NC(=O)c3coc(C(F)(F)F)n3)ccc2F)CCSC(N)=N1 [Compound 669],10
10,Cc1cnc(C(=O)Nc2ccc(F)c([C@@]3(C)N=C(N)SCC34CC4)c2)cn1 [Compound 674],10
11,COc1ncc(NC(=O)c2cnc(C)cn2)cc1[C@]1(C)CCSC(N)=N1 [Compound 680],50
12,COc1cnc(C(=O)Nc2ccc(F)c([C@@]3(C)N=C(N)SCC3=O)c2)cn1 [Compound 689],40
13,C[C@@]1(c2cc(NC(=O)c3cnc(NCC(F)(F)F)cn3)ccc2F)CCSC(N)=N1 [Compound 702],160

# Same assay, conditions: Recombinant human BACE-1 7.4 nM, substrate peptide 18 nM, pH 5.0, 30° C., 3 hours; time-resolved fluorescence ratio 665/620; read-out: IC50 values (50% inhibitory concentration against the enzymatic activity)
row,Compound,IC50 [nM]
1,COc1cnc(C(=O)Nc2ccc(F)c([C@]3(C)CC(C)(C)SC(N)=N3)c2)cn1 [Compound 600],≤ 1000
2,COCCOc1cnc(C(=O)Nc2ccc(F)c([C@]3(C)CC(C)(C)SC(N)=N3)c2)cn1 [Compound 601],≤ 1000
3,COc1cnc(C(=O)Nc2ccc(F)c([C@]3(C)CCSC(N)=N3)c2)c(C)c1 [Compound 602],≤ 1000
4,COc1cnc(C(=O)Nc2ccc(F)c([C@]3(C)CCSC(N)=N3)c2)c(N)n1 [Compound 603],≤ 1000
5,CC1(C)C[C@@](C)(c2cc(NC(=O)c3cnc(OCCF)cn3)ccc2F)N=C(N)S1 [Compound 605],≤ 1000
6,Cc1cnc(C(=O)Nc2ccc(F)c([C@]3(C)CC(C)(C)SC(N)=N3)c2)cn1 [Compound 606],≤ 1000
7,Cc1nc(C(=O)Nc2ccc(F)c([C@]3(C)CC(C)(C)SC(N)=N3)c2)co1 [Compound 609],≤ 1000
8,Cc1nc(C(=O)Nc2ccnc([C@]3(C)CCSC(N)=N3)c2)co1 [Compound 612],≤ 1000
9,C[C@@]1(c2cc(NC(=O)c3ncccc3F)ccn2)CCSC(N)=N1 [Compound 613],≤ 1000
10,COc1cnc(C(=O)Nc2ccnc([C@]3(C)CC(C)(C)SC(N)=N3)c2)cn1 [Compound 637],≤ 1000
11,CC1(C)C[C@@](C)(c2cc(NC(=O)c3ncc(C(F)(F)F)cc3Cl)ccc2F)N=C(N)S1 [Compound 644],≤ 1000
12,C[C@@]1(c2cncc(NC(=O)c3ncc(C(F)(F)F)cc3F)c2)CCSC(N)=N1 [Compound 646],≤ 1000
13,COc1cnc(C(=O)Nc2ccc(F)c([C@@]3(C)N=C(N)SCC3(C)C)c2)cn1 [Compound 647],≤ 1000
14,Cc1cnc(C(=O)Nc2ccc(F)c([C@@]3(C)N=C(N)SCC3(C)C)c2)cn1 [Compound 649],≤ 1000
15,C[C@@]1(c2cc(NC(=O)c3cn4cc(C(F)(F)F)nc4cn3)ccc2F)CCSC(N)=N1 [Compound 651],≤ 1000
16,Cc1cnc(C(=O)Nc2ccnc([C@]3(C)CC(C)(C)SC(N)=N3)c2)cn1 [Compound 653],≤ 1000
17,CC1(C)C[C@@](C)(c2cc(NC(=O)c3ncc(C(F)(F)F)cc3Cl)ccn2)N=C(N)S1 [Compound 656],≤ 1000
18,C#CCOc1cnc(C(=O)Nc2ccnc([C@]3(C)CC(C)(C)SC(N)=N3)c2)cn1 [Compound 657],≤ 1000
19,CC1(C)C[C@@](C)(c2cc(NC(=O)c3cnc(OCCF)cn3)ccn2)N=C(N)S1 [Compound 658],≤ 1000
20,C#CCOc1cnc(C(=O)Nc2ccnc([C@]3(C)CCSC(N)=N3)c2)cn1 [Compound 659],≤ 1000
21,CC1(C)CSC(N)=N[C@]1(C)c1cc(NC(=O)c2ncccc2F)ccc1F [Compound 661],≤ 1000
22,C[C@@]1(c2cc(NC(=O)c3cnc4ccccc4n3)ccc2F)CCSC(N)=N1 [Compound 666],≤ 1000
23,CCc1nc(C(=O)Nc2ccc(F)c([C@]3(C)CCSC(N)=N3)c2)co1 [Compound 670],≤ 1000
24,C[C@@]1(c2cc(NC(=O)c3cnc(OCC4CCO4)cn3)ccc2F)CCSC(N)=N1 (stereo partly drawn) [Compound 672],≤ 1000
25,COc1cnc(C(=O)Nc2ccc(F)c([C@@]3(C)N=C(N)SCC3(F)F)c2)cn1 [Compound 673],≤ 1000

row,Compound,IC50 [nM]
1,COc1cnc(C(=O)Nc2ccc(F)c([C@@]3(C)N=C(N)SCC34CC4)c2)cn1 [Compound 675],≤ 1000
2,C#CCOc1cnc(C(=O)Nc2ccc(F)c([C@@]3(C)N=C(N)SCC34CC4)c2)cn1 [Compound 676],≤ 1000
3,C[C@@]1(c2cc(NC(=O)c3ncc(Cl)cc3Cl)ccn2)CCSC(N)=N1 [Compound 677],≤ 1000
4,C[C@@]1(c2cc(NC(=O)c3ncc(C(F)(F)F)cc3Cl)ccn2)CCSC(N)=N1 [Compound 678],≤ 1000
5,COc1cnc(C(=O)Nc2ccnc([C@]3(C)CCSC(N)=N3)c2)c(C)c1 [Compound 679],≤ 1000
6,COc1cnc(C(=O)Nc2ccc(F)c([C@@]3(C)N=C(N)SC[C@@H]3OCc3ccccc3)c2)cn1 [Compound 683],≤ 1000
7,COc1cnc(C(=O)Nc2ccc(F)c([C@@]3(C)N=C(N)SC[C@H]3OCc3ccccc3)c2)cn1 [Compound 684],≤ 1000
8,COc1cnc(C(=O)Nc2ccnc([C@]3(C)CC(C)(C)SC(N)=N3)c2)c(C)c1 [Compound 685],≤ 1000
9,CC1(C)C[C@@](C)(c2cc(NC(=O)c3ncc(Cl)cc3Cl)ccn2)N=C(N)S1 [Compound 686],≤ 1000
10,C[C@]1(c2cc(NC(=O)c3ncc(Cl)cc3Cl)ccc2F)N=C(N)SCC1=O [Compound 687],≤ 1000
11,COc1cnc(C(=O)Nc2ccnc([C@]3(C)CC(C)(C)SC(N)=N3)c2)c(N)n1 [Compound 688],≤ 1000
12,C[C@@]1(c2cc(NC(=O)c3ncc(Cl)cc3Cl)ccc2F)CCSC(N)=N1 [Compound 690],≤ 1000
13,COc1cnc(C(=O)Nc2ccnc([C@]3(C)CCSC(N)=N3)c2)c(N)n1 [Compound 691],≤ 1000
14,C#CCOc1cnc(C(=O)Nc2ccc(F)c([C@]3(C)CC(C)(C)SC(N)=N3)c2)cn1 [Compound 692],≤ 1000
15,C#CCOc1cnc(C(=O)Nc2cccc([C@]3(C)CC(C)(C)SC(N)=N3)c2)cn1 [Compound 693],≤ 1000
16,COc1cnc(C(=O)Nc2cccc([C@]3(C)CC(C)(C)SC(N)=N3)c2)cn1 [Compound 694],≤ 1000
17,CC#CCOc1cnc(C(=O)Nc2cccc([C@]3(C)CC(C)(C)SC(N)=N3)c2)cn1 [Compound 695],≤ 1000
18,CC1(C)C[C@@](C)(c2cc(NC(=O)c3ccc(C#N)cn3)ccn2)N=C(N)S1 [Compound 696],≤ 1000
19,C[C@@]1(c2cc(NC(=O)c3cn4cc(C#N)nc4cn3)ccc2F)CCSC(N)=N1 [Compound 697],≤ 1000
20,C#Cc1cn2cc(C(=O)Nc3ccc(F)c([C@]4(C)CCSC(N)=N4)c3)ncc2n1 [Compound 698],≤ 1000
21,C[C@@]1(c2cc(NC(=O)c3cn4cc(C#N)nc4cn3)ccn2)CCSC(N)=N1 [Compound 699],≤ 1000
22,C#Cc1cn2cc(C(=O)Nc3ccnc([C@]4(C)CCSC(N)=N4)c3)ncc2n1 [Compound 700],≤ 1000
23,C[C@@]1(c2cc(NC(=O)c3cnc(NCC#N)cn3)ccc2F)CCSC(N)=N1 [Compound 701],≤ 1000
24,C[C@@]1(c2cc(NC(=O)c3cnc(NCC(F)(F)F)cn3)ccc2F)CCSC(N)=N1 [Compound 702],≤ 1000
